Source: patent US12605407B2, “Methods to induce terminal differentiation in stem cells by interfering with DNA replication, methods of inducing pancreatic differentiation, and differentiated cells obtained thereof” (priority 2018, dated 2026)

Experiments:
pancreatic progenitors = assay: Beta cell differentiation from human pluripotent stem cells, flow cytometry of C-peptide and NKX6.1 positive cells; assay type: cell-based; details: for effectiveness to induce differentiation of pancreatic progenitors to C-peptide positive cells, comparison within panel: day 27; for percentage / number of C-peptide positive cells compared to control: end of differentiation on day 27, compounds added day 15 to day 27
Protocol: Beta cells differentiated from human pluripotent stem cell lines as described in Example 2 (Sui et al., 2018b). Indicated compounds that function as cell cycle inhibitors were added individually from day 15 to day 27 with concentration listed below:
The DNA replication inhibitors used in this study: 0.1 μM, 0.5 μM and 1 μM Aphidicolin (A0781, Sigma-Aldrich); 2.5 μM Cisplatin (232120, EMD Millipore); 100 μM Ciprofloxacin (S2027, Selleck Chemicals); 10 μM Pyridostatin (S7444, Selleck Chemicals); 10 μM E2F Inhibitor (324461, EMD Millipore); 0.05 μM A485 (6387, Tocris); 2 μM RL5a (SML2187, Sigma-Aldrich); and 2 μM Etoposide (E55500, Research Products International). Indicated compounds were added individually from day 15 to day 27 with indicated concentration.
(§1) The beta cell clusters were dissociated using TrypLE™ Express into single cells. Cells were fixed with 4% PFA for 10 min and followed by permeabilization at −20° C. with cold methanol for 10 min. Primary antibodies were added at a dilution of 1:100 in autoMACs Rinsing Solution (Cat. No. 130-091-222, Miltenyi Biotec) containing 0.5% BSA at 4° C. for 1 hour. Secondary antibodies were added at a dilution of 1:500 at room temperature for 1 hour. The cells were filtered with BD Falcon 12×75 mm tube with cell strainer cap (Cat. No. 352235, BD) and subsequently analyzed by flow cytometer. Data were analyzed using Flowjo software. Negative controls were performed by only adding secondary antibodies.
Aphidicolin (APH), a DNA polymerase inhibitor, was used to inhibit DNA replication (Koundrioukoff et al., 2013). […] The insulin expressing cells were evenly distributed in the islet-like clusters with high percentage indicated by the expression of GFP, whereas some parts of the clusters in control remained GFP negative (FIG. 1D).

[1] = test system: stem cell derived beta cells; assay: Stability of beta cell identity in long-term culture after removal of compound at day 27; assay type: cell-based, human; details: additional 30 days of culture (day 60)
Protocol: as §1
With APH, a high proportion of cells in the islet-like clusters were positive for C-peptide and NKX6.1, a transcription factor for maintaining the beta cell identity and functional maturation (Schaffer et al., 2013). […] Beta cells were cultured for additional 7 days until about day 34 and 30 days until about day 60 upon removal of these compounds at day 27. […] In contrast, in APH treated cells, there was no decrease in C-peptide or NKX6.1 on day 34 (FIG. 5A). […] After further culturing of the cells for extra 30 days, very few of cells in control group remained GFP expression and were positive for C-peptide.
The ability of other DNA replication inhibitors to stabilize the beta cell identity was investigated. The expressions of GFP were maintained after releasing cells from these inhibitors for 7 days until day 34. With additional 30 days of culture, the expressions of GFP were reduced in all conditions at certain levels, but the cells treated with Cis and Eto expressed higher GFP than the cells treated with APH compared to the other conditions (FIG. 5E, FIG. 5F).

Compound | effectiveness to induce differentiation of pancreatic progenitors to C-peptide positive cells, comparison within panel (pancreatic progenitors) | percentage / number of C-peptide positive cells compared to control (pancreatic progenitors) | expressions of GFP (insulin) [1]
O=C1NC(=O)c2c1c1c3ccccc3[nH]c1c1[nH]c3cc(Br)ccc3c21 [CDK4] | less effective | – | –
RL5a | less effective | failed to increase | –
COc1cc([C@@H]2c3cc4c(cc3[C@@H](O[C@@H]3O[C@@H]5CO[C@@H](C)O[C@H]5[C@H](O)[C@H]3O)[C@H]3COC(=O)[C@H]23)OCO4)cc(OC)c1O [Etoposide] | most effective | – | higher GFP
N.N.[Cl][Pt][Cl] [cisplatin, Cisplatin] | most effective | – | higher GFP
CNC(=O)Nc1ccc2c(c1)CC[C@@]21OC(=O)N(CC(=O)N(Cc2ccc(F)cc2)[C@@H](C)C(F)(F)F)C1=O [P300 inhibitor] | – | no significant increase | –
